Marks after values point to notes of the source that are not given here.
Key:
[1] = system: Arachidonic Acid-Induced Cellular Infiltration; assay: Arachidonic acid-induced air pouch inflammation; format: in vivo, Lewis rats; conditions: 100 mg/kg; 3 hours after arachidonic acid
Description: (§1) In the following Examples where mice were used, they were male Balb/c mice (20-28 g), and where rats were used, they were male Lewis rats (180-210 g). All mice and rats were obtained from Charles River Breeding Laboratories, Kingston, N.Y. Within a single experiment, mice and rats were sex and age matched.
(§2) The compounds of Formula (IA) were used either as the free base or in the appropriate salt form. Levamisole was used as the hydrochloride salt. The compounds were homogenized in 0.5% tragacanth. Compounds were administered by gavage at the indicated dose in a final volume of 10 ml/kg. Nordihydroguaiaretic acid (NDGA) was solubilized in dimethylacetamide and diluted with olive oil for subcutaneous administration.
Rats were shaved on the dorsal flank, and then injected subcutaneously one day later with 20 ml of air to form a defined pouch, by the method of Sedgwick et al., J. Pathology, 141, 483-495 (1983). The air pouch was reinflated as necessary over the next 6 days. To assay anti-inflammatory activity, animals were treated orally with test compound or vehicle (10 ml/kg) one hour before injection of 2.0 ml of a 2.0% carrageenan suspension containing 200 units/ml penicillin and 100 »g/ml streptomycin into the air pouch. In other experiments, 5 ml of 0.1% arachidonic acid in 0.2 M bicarbonate buffer was injected two hours after drug treatment. Animals were sacrificed using CO₂ three hours after instillation of irritant. The exudate was then aspirated from the pouch and neutrophil count and differential cell count were measured.

[2] = molecular target: T1, 5-Lipoxygenase (Rattus norvegicus, UniProt P12527); assay: 5-HETE production by RBL-1 high speed supernatant; format: biochemical
T1 construct: The activities of these enzymes in extracts of RBL-1 cells were assayed; host or cells: RBL-1 cells, disrupted by nitrogen cavitation; 10,000 x g or 100,000 x g supernatant
T1 sequence (P12527 1-673): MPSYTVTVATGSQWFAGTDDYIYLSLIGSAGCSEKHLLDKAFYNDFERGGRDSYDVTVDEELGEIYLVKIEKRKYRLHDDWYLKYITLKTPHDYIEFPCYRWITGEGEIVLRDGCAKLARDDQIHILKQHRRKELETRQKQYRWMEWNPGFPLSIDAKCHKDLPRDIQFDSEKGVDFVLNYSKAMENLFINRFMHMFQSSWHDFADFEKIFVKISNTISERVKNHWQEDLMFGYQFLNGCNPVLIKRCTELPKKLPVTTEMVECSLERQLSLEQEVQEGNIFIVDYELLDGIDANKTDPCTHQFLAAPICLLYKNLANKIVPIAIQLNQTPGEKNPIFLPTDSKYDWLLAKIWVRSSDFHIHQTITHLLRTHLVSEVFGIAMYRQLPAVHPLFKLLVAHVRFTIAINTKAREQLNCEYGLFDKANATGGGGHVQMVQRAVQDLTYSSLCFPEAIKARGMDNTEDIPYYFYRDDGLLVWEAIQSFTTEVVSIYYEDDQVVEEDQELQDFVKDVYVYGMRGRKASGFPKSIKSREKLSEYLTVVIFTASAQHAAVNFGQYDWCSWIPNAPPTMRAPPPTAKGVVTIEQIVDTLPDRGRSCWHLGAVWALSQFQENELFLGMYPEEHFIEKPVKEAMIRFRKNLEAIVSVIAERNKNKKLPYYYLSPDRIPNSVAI
Protocol: For in vitro experiments, compounds were dissolved at appropriate concentrations in ethanol or DMSO (dimethylsulfoxide) (final concentration <1.0%) and then diluted to final concentrations using the buffers indicated in the text.
The activities of these enzymes in extracts of RBL-1 cells were assayed using the method of Jakschik and Lee, Nature, 287, 51-52 (1980). RBL-1 cells were obtained from the American Type Culture Collection (#CRL 1378) and were grown at 37°C (5% CO₂ in air) in spinner culture in MEM supplemented with 10% heat inactivated fetal calf serum. Harvested cells were washed with 50 mM sodium phosphate buffer, pH 7.0, containing 1 mM EDTA and 0.1% gelatin, resuspended in fresh buffer (5 x 10⁷ cells/ml) and disrupted by nitrogen cavitation using the Parr bomb at 750 psi for 10 min. The broken cell extract was then centrifuged at 10,000 x g for 20 minutes and the supernatant centrifuged at 100,000 x g for 60 minutes. Aliquots (0.25 mls) of the supernatant were preincubated with or without drugs for 10 min, after which 10 ul CaCl₂ (50 mM) was added and the reaction was initiated with 2.5 ul of 2.5 mM arachidonic acid-1-¹⁴C (final concentration was […]; specific activity 20,000 dpm/nmole). After incubation for 3 min at 37°C, the reaction was terminated by addition of 2 volumes (0.5 ml) ice cold acetone and the sample was allowed to deproteinize on ice for 10 min prior to centrifugation at 1,000 x g for 10 min. The deproteinized supernatant was adjusted to pH 3.5 with 2N formic acid and extracted with 2 volumes of ice cold ethyl acetate. The extracted samples were dried under argon, redissolved in ethyl acetate and applied to Whatman LK5D thin layer chromatography (TLC) plates which were developed using the A-9 solvent system [organic phase of ethyl acetate: 2,2,5-trimethylpentane:acetic acid: water (110:50:20:10)] described by Hamberg and Samuelsson, J. Biol. Chem., 241, 257-263 (1966). Arachidonic acid, 5-HETE, di-HETE and PGD₂ were quantified with a Berthold LB 2832 autoscanner.
The 5-lipoxygenase and LTA₄ synthetase activities were further studied under the following conditions. An additional centrifugation of the RBL-1 supernatant was run at 100,000 x g for 60 min, to remove the particulate cyclooxygenase activity. Sample incubation was done under conditions similar to those described above, i.e., 2 mM CaCl₂ and 25 uM arachidonic acid-1-¹⁴C, however, with an incubation time of 5 min at […]. Under these conditions, only the 5-lipoxygenase pathway metabolites were detectable. The 5-HETE and di-HETEs were formed at a linear rate, and […] amounts of the arachidonic acid-1-¹⁴C substrate were utilized.

[3] = system: Arachidonic Acid-Induced Inflammation of the Mouse Ear; assay: Arachidonic acid-induced mouse ear inflammation; format: in vivo, Balb/c mice
Description: as §1, §2
Arachidonic acid in acetone (2 mg/20 ul) was applied to the inner surface of the left ear. The thickness of both ears was then measured with a dial micrometer one hour after treatment, and the data were expressed as the change in thickness (10⁻³ cm) between treated and untreated ears.
Test compounds were given orally in 0.5% tragacanth at the times indicated in the text prior to the topical application of arachidonic acid.
Parenteral administration of compound was accomplished by subcutaneous injection of solution as indicated.

- 5-HETE (nM/ml) ([2]; 1 uM): 8.86 ± 0.31 nM/ml
- inhibition at 1 µM ([2]; 1 uM, read-out: % Control (5-HETE)): 12.7%
- 5-HETE (nM/ml) ([2]; 3.3 uM): 7.63 ± 0.44 nM/ml
- inhibition at 3.3 µM ([2]; 3.3 uM, read-out: % Control (5-HETE)): 24.9%
- 5-HETE (nM/ml) ([2]; 10 uM): 5.57 ± 0.35 nM/ml
- inhibition at 10 µM ([2]; 10 uM, read-out: % Control (5-HETE)): 45.1%
- 5-HETE (nM/ml) ([2]; 33 uM): 3.36 ± 0.07 nM/ml
- inhibition at 33 µM ([2]; 33 uM, read-out: % Control (5-HETE)): 67.9%
- 5-HETE (nM/ml) ([2]; 100 uM): 1.08 ± 0.13 nM/ml
- inhibition at 100 µM ([2]; 100 uM, read-out: % Control (5-HETE)): 89.4%
Compound: Fc1ccc(-c2nc3n(c2-c2ccncc2)CCS3)cc1 [Compound 1, 5-(4-pyridyl)-6-(4-fluorophenyl)-2,3-dihydroimidazo[2,1-b]thiazole]
- Cellular Infiltrate (Total x 10⁻⁶) MN [1]: 1.5 ± 1.1^d x 10⁻⁶
- Cellular Infiltrate (Total x 10⁻⁶) PMN [1]: 1.2 ± 0.7^e x 10⁻⁶
- Exudate Volume [1]: 2.6 ± 0.8 mL
- ED50 ([3]; Mus musculus, po, 1 hour after 2 mg of arachidonic acid to the ear, read-out: ED₅₀ (inhibition of the edematous response of the ear)): 19.5 mg/kg
- % Change ([3]; Table 7, 50 mg/kg, p.o.): -67^b %
- Increase in Ear Thickness at 1 Hour (x 10⁻³ cm) ([3]; Table 7, 50 mg/kg, p.o., 15 minutes before arachidonic acid): 10.0 ± 1.5 x 10⁻³ cm

Source: EP0231622B1, “Inhibition of the 5-lipoxygenase pathway” (priority 1985, dated 1987)
